# Where a name gives a salt, the structure may show the parent alone.
# Target: PHD2 (Homo sapiens, UniProt Q9GZT9)
# Test: PHD2 / HIF-1α peptide hydroxylation assay with time resolved fluorescence readout (PHD2 binding activity)
# Assay type: biochemical
# Settings: FLAG-tagged full length PHD2; 0.2 μM 2-oxoglutarate, 0.5 μM HIF-1α peptide; read-out: PHD2 Activity (PHD2 binding activity expressed as IC50)
# Method: After a 30 min preincubation at room temperature, the enzymatic reactions were initiated by the addition of 4 μL of substrates (final concentrations of 0.2 μM 2-oxoglutarate and 0.5 μM HIF-1α peptide biotinyl-DLDLEMLAPYIPMDDDFQL). After 2 hr at room temperature, the reactions were terminated and signals were developed by the addition of a 25 μL quench/detection mix to a final concentration of 1 mM ortho-phenanthroline, 0.1 mM EDTA, 0.5 nM anti-(His)6 LANCE reagent (Perkin-Elmer Life Sciences), 100 nM AF647-labeled streptavidin (Invitrogen), and 2 μg/ml (His)6-VHL complex (S. Tan(2001) Protein Expr. Purif 21, 224-234). The ratio of time resolved fluorescence signals at 665 and 620 nm was determined, and percent inhibition was calculated relative to an uninhibited control sample run in parallel.
# Chain of PHD2 (Q9GZT9 whole entry): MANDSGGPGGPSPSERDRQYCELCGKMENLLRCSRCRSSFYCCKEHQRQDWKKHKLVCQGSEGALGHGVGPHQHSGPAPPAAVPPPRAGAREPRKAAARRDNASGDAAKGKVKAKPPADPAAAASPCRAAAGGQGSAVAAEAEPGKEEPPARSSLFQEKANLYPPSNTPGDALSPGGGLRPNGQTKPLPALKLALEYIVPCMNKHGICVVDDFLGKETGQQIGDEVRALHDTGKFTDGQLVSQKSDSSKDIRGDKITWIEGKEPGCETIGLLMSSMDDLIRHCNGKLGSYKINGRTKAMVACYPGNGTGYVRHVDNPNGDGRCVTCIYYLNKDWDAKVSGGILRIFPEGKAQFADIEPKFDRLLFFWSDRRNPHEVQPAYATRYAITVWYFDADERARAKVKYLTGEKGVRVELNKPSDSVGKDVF
row,Compound,IC50
1,"CC1c2c(c(O)c(C(=O)NCC(=O)O)c(=O)n2Cc2ccc(-c3ccccc3)cc2)CN1C(=O)c1cscn1 (single isomer, unassigned) [55 Enantiomer 2]",10 to 100 nM
2,"CC(C)(C)C(=O)N1Cc2c(O)c(C(=O)NCC(=O)O)c(=O)n(Cc3ccc(C(F)(F)F)cc3)c2C1 [Example 15, N-({6-(2,2-dimethylpropanoyl)-4-hydroxy-2-oxo-1-[4-(trifluoromethyl)benzyl]-2,5,6,7-tetrahydro-1H-pyrrolo[3,4-b]pyridin-3-yl}carbonyl)glycine]",< 10 nM
3,"CCOC(=O)N1Cc2c(O)c(C(=O)NCC(=O)O)c(=O)n(Cc3ccc(C(F)(F)F)cc3)c2C1 [Example 16, N-({6-(ethoxycarbonyl)-4-hydroxy-2-oxo-1-[4-(trifluoromethyl)benzyl]-2,5,6,7-tetrahydro-1H-pyrrolo[3,4-b]pyridin-3-yl}carbonyl)glycine]",< 10 nM
4,"O=C(O)CNC(=O)c1c(O)c2c(n(Cc3ccc(C(F)(F)F)cc3)c1=O)CN(C(=O)N1CCCC1)C2 [Example 17, N-({4-hydroxy-2-oxo-6-(pyrrolidin-1-ylcarbonyl)-1-[4-(trifluoromethyl)benzyl]-2,5,6,7-tetrahydro-1H-pyrrolo[3,4-b]pyridin-3-yl}carbonyl)glycine]",< 10 nM
5,"O=C(O)CNC(=O)c1c(O)c2c(n(Cc3ccc(C(F)(F)F)cc3)c1=O)CN(C(=O)c1ccccc1Cl)C2 [Example 18, N-({6-(2-chlorobenzoyl)-4-hydroxy-2-oxo-1-[4-(trifluoromethyl)benzyl]-2,5,6,7-tetrahydro-1H-pyrrolo[3,4-b]pyridin-3-yl}carbonyl)glycine]",< 10 nM
6,"O=C(O)CNC(=O)c1c(O)c2c(n(Cc3ccc(C(F)(F)F)cc3)c1=O)CN(S(=O)(=O)c1ccccc1)C2 [Example 19, N-({4-hydroxy-2-oxo-6-(phenyl-sulfonyl)-1-[4-(trifluoromethyl)benzyl]-2,5,6,7-tetrahydro-1H-pyrrolo[3,4-b]pyridin-3-yl}carbonyl)glycine]",< 10 nM
7,"O=C(O)CNC(=O)c1c(O)c2c(n(Cc3ccc(C(F)(F)F)cc3)c1=O)CN(C(=O)C1CCCC1)C2 [Example 20, N-({6-(cyclopentylcarbonyl)-4-hydroxy-2-oxo-1-[4-(trifluoromethyl)benzyl]-2,5,6,7-tetrahydro-1H-pyrrolo[3,4-b]pyridin-3-yl}carbonyl)glycine]",< 10 nM
8,"O=C(O)CNC(=O)c1c(O)c2c(n(Cc3ccc(C(F)(F)F)cc3)c1=O)CN(C(=O)c1ccc(Cl)cc1)C2 [Example 21, N-({6-(4-chlorobenzoyl)-4-hydroxy-2-oxo-1-[4-(trifluoromethyl)benzyl]-2,5,6,7-tetrahydro-1H-pyrrolo[3,4-b]pyridin-3-yl}carbonyl)glycine]",< 10 nM
9,"CCOC(=O)N1Cc2c(O)c(C(=O)NCC(=O)O)c(=O)n(Cc3ccc(-c4ccccc4)cc3)c2C1 [Example 22, N-{[1-(biphenyl-4-ylmethyl)-6-(ethoxycarbonyl)-4-hydroxy-2-oxo-2,5,6,7-tetrahydro-1H-pyrrolo[3,4-b]pyridin-3-yl]carbonyl}glycine]",< 10 nM
10,"Cc1cc(C(=O)N2Cc3c(O)c(C(=O)NCC(=O)O)c(=O)n(Cc4ccc(C(F)(F)F)cc4)c3C2)n(C)n1 [Example 23, N-({6-[(1,3-dimethyl-1H-pyrazol-5-yl)carbonyl]-4-hydroxy-2-oxo-1-[4-(trifluoromethyl)benzyl]-2,5,6,7-tetrahydro-1H-pyrrolo[3,4-b]pyridin-3-yl}carbonyl)glycine]",< 10 nM
11,"O=C(O)CNC(=O)c1c(O)c2c(n(Cc3ccc(C(F)(F)F)cc3)c1=O)CN(C(=O)c1cc3ncccn3n1)C2 [Example 24, N-({4-hydroxy-2-oxo-6-(pyrazolo[1,5-a]pyrimidin-2-ylcarbonyl)-1-[4-(trifluoromethyl)benzyl]-2,5,6,7-tetrahydro-1H-pyrrolo[3,4-b]pyridin-3-yl}carbonyl)glycine]",< 10 nM
12,"O=C(O)CNC(=O)c1c(O)c2c(n(Cc3ccc(C(F)(F)F)cc3)c1=O)CN(C(=O)c1cccnc1)C2 [Example 25, N-({4-hydroxy-2-oxo-6-(pyridin-3-ylcarbonyl)-1-[4-(trifluoromethyl)benzyl]-2,5,6,7-tetrahydro-1H-pyrrolo[3,4-b]pyridin-3-yl}carbonyl)glycine]",< 10 nM

# Next, values leading:
row,IC50,Compound
1,< 10 nM,"CC1c2c(c(O)c(C(=O)NCC(=O)O)c(=O)n2Cc2ccc(-c3ccccc3)cc2)CN1C(=O)c1cscn1 (single isomer, unassigned) [55 Enantiomer 1]"
2,< 10 nM,"C=CCCC(=O)N1Cc2c(O)c(C(=O)NCC(=O)O)c(=O)n(Cc3ccc(C(F)(F)F)cc3)c2C1 [Example 1, N-({4-hydroxy-2-oxo-6-pent-4-enoyl-1-[4-(trifluoromethyl)benzyl]-2,5,6,7-tetrahydro-1H-pyrrolo[3,4-b]pyridin-3-yl}carbonyl)glycine]"
3,< 10 nM,"C=CCCC(=O)N1Cc2c(O)c(C(=O)NCC(=O)O)c(=O)n(Cc3ccc(-c4ccccc4)cc3)c2C1 [Example 2, N-{[1-(biphenyl-4-ylmethyl)-4-hydroxy-2-oxo-6-pent-4-enoyl-2,5,6,7-tetrahydro-1H-pyrrolo[3,4-b]pyridin-3-yl]carbonyl}glycine]"
4,< 10 nM,"C=CCCC(=O)N1Cc2c(O)c(C(=O)NCC(=O)O)c(=O)n(Cc3nc4ccccc4s3)c2C1 [Example 3, N-{[1-(1,3-benzothiazol-2-ylmethyl)-4-hydroxy-2-oxo-6-pent-4-enoyl-2,5,6,7-tetrahydro-1H-pyrrolo[3,4-b]pyridin-3-yl]carbonyl}glycine]"
5,< 10 nM,"C=CCCC(=O)N1Cc2c(O)c(C(=O)NCC(=O)O)c(=O)n(Cc3cccc(Br)c3)c2C1 [Example 4, N-{[1-(3-bromobenzyl)-4-hydroxy-2-oxo-6-pent-4-enoyl-2,5,6,7-tetrahydro-1H-pyrrolo[3,4-b]pyridin-3-yl]carbonyl}glycine]"
6,< 10 nM,"C=CCCC(=O)N1Cc2c(O)c(C(=O)NCC(=O)O)c(=O)n(Cc3ccc(Br)cc3)c2C1C (stereo not drawn) [Example 5, N-{[1-(4-bromobenzyl)-4-hydroxy-7-methyl-2-oxo-6-pent-4-enoyl-2,5,6,7-tetrahydro-1H-pyrrolo[3,4-b]pyridin-3-yl]carbonyl}glycine]"
7,< 10 nM,"C=CCCC(=O)N1Cc2c(c(O)c(C(=O)NCC(=O)O)c(=O)n2Cc2ccc(Br)cc2)C1C (stereo not drawn) [Example 6, N-{[1-(4-bromobenzyl)-4-hydroxy-5-methyl-2-oxo-6-pent-4-enoyl-2,5,6,7-tetrahydro-1H-pyrrolo[3,4-b]pyridin-3-yl]carbonyl}glycine]"
8,< 10 nM,"O=C(O)CNC(=O)c1c(O)c2c(n(Cc3ccc(C(F)(F)F)cc3)c1=O)CNC2 [Example 7, N-({4-hydroxy-2-oxo-1-[4-(trifluoromethyl)benzyl]-2,5,6,7-tetrahydro-1H-pyrrolo[3,4-b]pyridin-6-ium-3-yl}carbonyl)glycine trifluoroacetate]"
9,< 10 nM,"O=C(O)CNC(=O)c1c(O)c2c(n(Cc3ccc(C(F)(F)F)cc3)c1=O)CN(C(=O)c1cccc(Cl)c1)C2 [Example 8, N-({6-(3-chlorobenzoyl)-4-hydroxy-2-oxo-1-[4-(trifluoromethyl)benzyl]-2,5,6,7-tetrahydro-1H-pyrrolo[3,4-b]pyridin-3-yl}carbonyl)glycine]"
10,< 10 nM,"CC(=O)N1Cc2c(O)c(C(=O)NCC(=O)O)c(=O)n(Cc3ccc(C(F)(F)F)cc3)c2C1 [Example 9, N-({6-acetyl-4-hydroxy-2-oxo-1-[4-(trifluoromethyl)benzyl]-2,5,6,7-tetrahydro-1H-pyrrolo[3,4-b]pyridin-3-yl}carbonyl)glycine]"
11,< 10 nM,"CS(=O)(=O)N1Cc2c(O)c(C(=O)NCC(=O)O)c(=O)n(Cc3ccc(C(F)(F)F)cc3)c2C1 [Example 10, N-({4-hydroxy-6-(methylsulfonyl)-2-oxo-1-[4-(trifluoromethyl)benzyl]-2,5,6,7-tetrahydro-1H-pyrrolo[3,4-b]pyridin-3-yl}carbonyl)glycine]"
12,< 10 nM,"O=C(O)CNC(=O)c1c(O)c2c(n(Cc3ccc(C(F)(F)F)cc3)c1=O)CN(C(=O)N1CCOCC1)C2 [Example 11, N-({4-hydroxy-6-(morpholin-4-ylcarbonyl)-2-oxo-1-[4-(trifluoromethyl)benzyl]-2,5,6,7-tetrahydro-1H-pyrrolo[3,4-b]pyridin-3-yl}carbonyl)glycine]"
13,< 10 nM,"CN(C)S(=O)(=O)N1Cc2c(O)c(C(=O)NCC(=O)O)c(=O)n(Cc3ccc(C(F)(F)F)cc3)c2C1 [Example 12, N-({6-[(dimethylamino)sulfonyl]-4-hydroxy-2-oxo-1-[4-(trifluoromethyl)benzyl]-2,5,6,7-tetrahydro-1H-pyrrolo[3,4-b]pyridin-3-yl}carbonyl)glycine]"
14,< 10 nM,"COCC(=O)N1Cc2c(O)c(C(=O)NCC(=O)O)c(=O)n(Cc3ccc(C(F)(F)F)cc3)c2C1 [Example 14, N-({4-hydroxy-6-(methoxyacetyl)-2-oxo-1-[4-(trifluoromethyl)benzyl]-2,5,6,7-tetrahydro-1H-pyrrolo[3,4-b]pyridin-3-yl}carbonyl)glycine]"

# Same assay, conditions: PHD2 Activity (PHD2 binding activity expressed as IC50), FLAG-tagged full length PHD2; 0.2 μM 2-oxoglutarate, 0.5 μM HIF-1α peptide
row,Compound,IC50
1,"O=C(O)CNC(=O)c1c(O)c2c(n(Cc3ccc(C(F)(F)F)cc3)c1=O)CN(C(=O)C1CC1)C2 [Example 13, N-({6-(cyclopropylcarbonyl)-4-hydroxy-2-oxo-1-[4-(trifluoromethyl)benzyl]-2,5,6,7-tetrahydro-1H-pyrrolo[3,4-b]pyridin-3-yl}carbonyl)glycine]",< 10 nM

# From patent US8372863B2, “Tetrahydro-1H-pyrrolo fused pyridones” (Merck Sharp & Dohme Corp., priority 2008, dated 2013)
